Read-outs that look alike come from different tables or passages of the source.
Key:
Mouse RBCs = test: Tube serology of murine RBCs transformed with H-antigen synthetic glycolipids; type: cell-based; conditions: for Agglutination, UEA-1: tube serology; for H Antisera IgM, Tube: mouse RBCs
Protocol: Washed packed mouse RBCs (3 parts by volume) and the synthetic glycolipid solutions (1 part by volume of varying concentrations) were added to an eppendorf tube. The tube was incubated in a 37° C. waterbath for one hour, mixing every 15 minutes. The transformed RBCs were washed 3× with PBS and then suspended in Cellstab™ at the appropriate concentration for serology testing.
Murine RBCs were washed 3× in 1× PBS. 30 μl of packed RBCs were combined with 30 μl of Hdi-sp-Ad-DOPE (VIII), and 30 μl of packed RBCs were combined with 30 μl Galβ-sp-Ad-DOPE (IX), respectively. Both synthetic molecule constructs were at a concentration of 1.0 mg/ml. 30 μl of 1× PBS was added to 30 μl of packed RBCs to act as the control group. Cells were incubated for 90 minutes in a 37° C. shaking water-bath. RBCs were washed 3× in 1× PBS.
Three groups of packed RBCs were incubated with an equal volume of lectin UEA-1 for 30 minutes at room temperature. The lectin was prepared in 1× PBS at a concentration of 0.1 mg/ml. 50 μl of a 3% cell suspension was spun for 15 seconds in an Immunofuge at low speed. Results were read by tube serology.

red blood cells = test: Association of KODE-fluorescein with cell membranes (fluorescence microscope); type: cell-based
Description: FIG. 20. Red blood cells following contact with a synthetic molecule construct (XVI) viewed with a fluorescence microscope at 470 nm under 250× magnification.
A medium to strongly fluorescing cell was considered to indicate a uniform distribution of the molecule across the cell membrane (FIG. 20).

[1] = Solubility of synthetic glycolipids in hot PBS; type: physicochemical
Description: In the context of this description the phrase “water soluble” means a stable, single phase system is formed when the synthetic molecule construct is contacted with water or saline (such as PBS) in the absence of organic solvents or detergents, and the term “solution” has a corresponding meaning.
For use in the transformation of cells the first criterion that synthetic glycolipids must satisfy is that they are soluble in aqueous solvents, e.g. phosphate buffered saline.
Initial tests on the molecules were to establish solubility and thus eliminate those molecules that were unsuitable for use in the transformation of cells.

RBCs [2] = test: Detectable transformation ability of synthetic glycolipids (agglutination); type: cell-based; conditions: agglutination with the appropriate antibody
Description: The synthetic glycolipid must also be able to insert into the membrane and be recognisable to the appropriate antibody for transformation to be detected by agglutination. Initial tests on the molecules were to establish solubility and thus eliminate those molecules that were unsuitable for use in the transformation of cells.

RBCs [3] = test: Evaluation of insertion of different lipid tails by agglutination with the relevant antisera; type: cell-based; parameters: scale not given here
Description: Transformation of RBCs with synthetic glycolipids with different lipid tails was first evaluated (Tables 22 and 24).

[4] = test system: group O red blood cells (RBCs); test: Tube serology of group O RBCs transformed at 37° C. with synthetic glycolipids; type: cell-based, human; parameters: Albaclone anti-A, Tube / Bioclone anti-A, Tube: scale not given here
Protocol: (§1) Washed packed group O red blood cells (RBCs) (3 parts by volume) and the synthetic glycolipid solution (1 part by volume, varying concentrations) were added to an eppendorf tube. The tube was incubated in a 37° C. waterbath for one hour, mixing every 15 minutes. […]
(§2) Tube serology and Diamed gel-card results for RBCs transformed with the different synthetic molecule constructs are provided in Table 38. Results for the stability of the RBCs transformed with the different synthetic glycolipids at different concentrations are provided in Tables 39 to 44.

[5] = test system: group O red blood cells (RBCs); test: Diamed gel-card agglutination of group O RBCs transformed at 37° C. with synthetic glycolipids; type: cell-based, human; parameters: scale not given here
Protocol: as §1, §2

CCCCCCCC/C=C\CCCCCCCC(=O)OC[C@H](COP(=O)(O)OCCNC(=O)CCCCC(=O)NCCCO[C@@H]1O[C@H](CO)[C@H](O)[C@H](O)[C@H]1O)OC(=O)CCCCCCC/C=C\CCCCCCCC [Galβ]
Agglutination, UEA-1 (Mouse RBCs; Murine RBC, 1 mg/ml): 0

CCCCCCCCC=CCCCCCCCC(=O)OCC(COP(=O)(O)OCCNC(=O)CCCCC(=O)NCCCCCNC(=S)Nc1ccc(-c2c3ccc(=O)cc-3oc3cc(O)ccc23)c(C(=O)O)c1)OC(=O)CCCCCCCC=CCCCCCCCC (centres unmarked) [KODE-fluorescein (I)]
Association with the membrane of red blood cells (red blood cells): readily associates
Concentration of dispersion at which insertion is observed (red blood cells): greater than 0.1 mg/ml
Period for which incorporation and distribution appears stable (red blood cells; cells stored in the dark): at least 40 days

CCCCCCCCCCCCCCCCCC(=O)OC[C@H](COP(=O)(O)OCCNC(=O)CCCCC(=O)NCCCO[C@@H]1O[C@H](CO)[C@H](O)[C@H](O[C@H]2O[C@H](CO)[C@H](O)[C@H](O)[C@H]2NC(C)=O)[C@H]1O[C@@H]1O[C@@H](C)[C@@H](O)[C@@H](O)[C@@H]1O)OC(=O)CCCCCCCCCCCCCCCCC [Atri-sp-Ad-DSPE (III)]
Water solubility ([1]; hot PBS): Yes
Detectable transformation ability (RBCs [2]): Yes
Agglutination score (RBCs [3]; 10 μg/mL, Alba anti-A, first series): 0
Agglutination score (RBCs [3]; 10 μg/mL, Bio anti-A, first series): 0
Agglutination score (RBCs [3]; 20 μg/mL, Alba anti-A, first series): 0
Agglutination score (RBCs [3]; 20 μg/mL, Bio anti-A, first series): 0
Agglutination score (RBCs [3]; 30 μg/mL, Alba anti-A, first series): 0
Agglutination score (RBCs [3]; 30 μg/mL, Bio anti-A, first series): 0
Agglutination score (RBCs [3]; 40 μg/mL, Alba anti-A, first series): 0
Agglutination score (RBCs [3]; 40 μg/mL, Bio anti-A, first series): 0
Agglutination score (RBCs [3]; 50 μg/mL, Alba anti-A, first series): 0
Agglutination score (RBCs [3]; 50 μg/mL, Bio anti-A, first series): 0
Agglutination score (RBCs [3]; 1000 μg/mL, DBA): 0
Albaclone anti-A, Tube ([4]; 0.01 mg/mL): 0
Bioclone anti-A, Tube ([4]; 0.01 mg/mL): 0
Albaclone anti-A, Tube ([4]; 0.02 mg/mL): 0
Bioclone anti-A, Tube ([4]; 0.02 mg/mL): 0
Albaclone anti-A, Tube ([4]; 0.03 mg/mL): 0
Bioclone anti-A, Tube ([4]; 0.03 mg/mL): 0
Albaclone anti-A, Tube ([4]; 0.04 mg/mL): 0
Bioclone anti-A, Tube ([4]; 0.04 mg/mL): 0
Albaclone anti-A, Tube ([4]; 0.05 mg/mL): 0
Bioclone anti-A, Tube ([4]; 0.05 mg/mL): 0
Albaclone anti-A, Diamed ([5]; 0.01 mg/mL): 0
Bioclone anti-A, Diamed ([5]; 0.01 mg/mL): 0
Albaclone anti-A, Diamed ([5]; 0.05 mg/mL): 0
Bioclone anti-A, Diamed ([5]; 0.05 mg/mL): 0
Albaclone anti-A, Diamed ([5]; 0.1 mg/mL): 0
Bioclone anti-A, Diamed ([5]; 0.1 mg/mL): 0
Albaclone anti-A, Diamed ([5]; 0.25 mg/mL): 0
Bioclone anti-A, Diamed ([5]; 0.25 mg/mL): 0

CCCCCCCC/C=C\CCCCCCCC(=O)OC[C@H](COP(=O)(O)OCCNC(=O)CCCCC(=O)NCCCO[C@@H]1O[C@H](CO)[C@H](O)[C@H](O)[C@H]1O)OC(=O)CCCCCCC/C=C\CCCCCCCC [Galβ-sp-Ad-DOPE (IX)]
Water solubility [1]: Yes
Detectable transformation ability (RBCs [2]): lack of detectable transformation and No
H Antisera IgM, Tube (Mouse RBCs; 0.01 mg/mL): 0
H Antisera IgM, Tube (Mouse RBCs; 0.05 mg/mL): 0
H Antisera IgM, Tube (Mouse RBCs; 0.1 mg/mL): 0
H Antisera IgM, Tube (Mouse RBCs; 0.25 mg/mL): 0

CCCCCCCC/C=C\CCCCCCCC(=O)OC[C@H](COP(=O)(O)OCCNC(=O)CCCCC(=O)NCCCO[C@@H]1O[C@H](CO)[C@H](O)[C@H](O)[C@H]1O[C@@H]1O[C@@H](C)[C@@H](O)[C@@H](O)[C@@H]1O)OC(=O)CCCCCCC/C=C\CCCCCCCC [Hdi-sp-Ad-DOPE (VIII)]
Water solubility ([1]; hot PBS): Yes
Detectable transformation ability (RBCs [2]): lack of detectable transformation and No
H Antisera IgM, Tube (Mouse RBCs; 0.01 mg/mL): 0
H Antisera IgM, Tube (Mouse RBCs; 0.05 mg/mL): 0
H Antisera IgM, Tube (Mouse RBCs; 0.1 mg/mL): 0
H Antisera IgM, Tube (Mouse RBCs; 0.25 mg/mL): 0
Detection of transformed murine RBCs by anti-H IgM and UEA-1 (Mouse RBCs; 1.0 mg/ml, 37° C. 90 minutes): neither anti-H IgM nor UEA-1 detects
Agglutination, Mouse IgM^H (Mouse RBCs; Murine RBC, 1 mg/ml): 0
Agglutination, UEA-1 (Mouse RBCs; Murine RBC, 1 mg/ml): 0
